Measurements taken from PMC8719441, “Tonoplast-Localized Theanine Transporter CsCAT2 May Mediate Theanine Storage in the Root of Tea Plants (Camellia sinensis L.)” (Frontiers in Plant Science, 2021).

B1: CsCAT2 (Camellia sinensis) (protein)
chain: MGFRCDSQNDGGACPWTCGFKGLIRRKQVDSIHAKSSGSGHHQLAKELSVFHLIAIGVGSTIGAGVYILVGTVAREHSGPALTFSFLIAGIAAALSAFCYAELASRCPSAGSAYHYSYICVGEGVAWLIGWALILEYTIGGSAVARGISPNLALLFGGADSLPFFLARQHLPGLDIVVDPCAALLVIVVTGLLCVGIKESTLVQSIVTTANVCAMLFVIIAGGYLGFKSGWVGYELPVGYFPFGVDGMLAGAATVFFAYIGFDSVASTAEEVKNPQRDLPLGIAAALSICCMLYMLVSVVIVGLVPYYAMDPDTPISSAFASHGMQWAAYIITAGATTALCSTLMGSMLPQPRILMAMSRDGLLPSIFSDVNKRTQVPIKSTVITGVVAAILAFIMDVEQLAGMVSVGTLLAFTMVAISVLILRYVPPDEVPIPSSLQESIDSVSLRYSTSNDNIEEEKPKDHIGSSTQSTRLLLGKVDRPIAYPLIPKQAATILNDNRRKIAGWTIMFTCVGVLLLTSAASSVGLLPSYFRFGVCGIGVVLILSGLVVLTCIDQDDARHSFGHTGGFICPFVPLLPIACVLINVYLLINLGSATWTRVSIWLLIGVLVYAFYGRTHSSLKDAVYVPATHVEEIYRSSENSLP
notes: no tag mentioned

substrate: CCNC(=O)CC[C@H](N)C(=O)O; experiment: cells, lysate or membranes; format: cell-based, Camellia sinensis; conditions: 0.09375-8 mM theanine, 0-20 min, after 2 h nitrogen starvation; H+-coupled

Molecule	Km [µM]
B1	450

biological target: T1, CsCAT2 (Camellia sinensis, UniProt A0A2R3U877); experiment: competition with theanine uptake in yeast […]Δ[…]α-CsCAT2, HPLC-UV; growth on sole nitrogen source; format: cell-based; conditions: 200 μM theanine, 10 min
T1 construct: gene CAT2; no tag mentioned

Molecule	% theanine uptake at 2 mM competitor
C[C@H](N)C(=O)O [alanine]	CsCAT2's capacity to transport theanine was significantly suppressed by these amino acids
N[C@@H](CC(=O)O)C(=O)O [aspartic acid]	CsCAT2's capacity to transport theanine was significantly suppressed by these amino acids
N[C@@H](CCC(=O)O)C(=O)O [glutamate]	CsCAT2's capacity to transport theanine was significantly suppressed by these amino acids
NC(=O)CC[C@H](N)C(=O)O [glutamine]	CsCAT2's capacity to transport theanine was significantly suppressed by these amino acids
CC(C)[C@H](N)C(=O)O [valine]	CsCAT2's capacity to transport theanine was significantly suppressed by these amino acids
